Reference: paper PMC6037046, “Structural insights into Plasmodium falciparum nicotinamide mononucleotide adenylyltransferase: oligomeric assembly” (Memórias do Instituto Oswaldo Cruz, 2018)

Legend:
[1] = molecular target: 6 x His-Plasmodium falciparum nicotinamide mononucleotide adenylyltransferase (PfNMNAT) recombinant protein (Plasmodium falciparum (FCB2 strain gDNA; ORF identified in strain 3D7)) (UniProt Q8IE38); assay: native gel or EMSA; native PAGE of IMAC eluate (four gels of 6, 8, 10, 12 %T) with Ferguson plot (-Log Kr vs Log MW) against standard proteins
6 x His-PfNMNAT = molecular target: T1, 6 x His-PfNMNAT (Plasmodium falciparum, UniProt Q8IE38); assay: RP-HPLC of NAD formed (direct assay); also ADH-coupled assay at […] nm; format: biochemical; details: 1.25 mM NMN, 1.25 mM ATP, 10 mM MgCl2, 25 mM HEPES/KOH pH 7.4, 37 C
T1 construct: gene PF3D7_1327600; full ORF in pET100/D-TOPO, N-terminal 6xHis tag kept, E. coli Codon Plus (DE3) RIL, ~28 kDa
T1 sequence (Q8IE38 1-204): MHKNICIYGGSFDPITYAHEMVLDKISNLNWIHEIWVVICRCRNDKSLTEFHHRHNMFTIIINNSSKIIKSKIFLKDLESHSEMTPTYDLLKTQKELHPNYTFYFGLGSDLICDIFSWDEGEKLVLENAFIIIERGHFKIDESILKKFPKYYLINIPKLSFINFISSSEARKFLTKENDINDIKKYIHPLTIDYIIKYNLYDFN

stoichiometry N [1] | Molecule | RP-HPLC of NAD formed (direct assay); also ADH-coupled assay at 340 nm (6 x His-PfNMNAT)
2 | 6 x His-Plasmodium falciparum nicotinamide mononucleotide adenylyltransferase (PfNMNAT) recombinant protein (from UniProt Q8IE38 1-204) (enzyme) | –
– | Nc1ncnc2c1ncn2[C@@H]1O[C@H](COP(=O)(O)OP(=O)(O)OP(=O)(O)O)[C@@H](O)[C@H]1O [ATP] | direct enzymatic assays that measured NAD synthesis from NMN and ATP
– | NC(=O)c1ccc[n+]([C@@H]2O[C@H](COP(=O)(O)O)[C@@H](O)[C@H]2O)c1 [NMN, nicotinamide mononucleotide] | direct enzymatic assays that measured NAD synthesis from NMN and ATP
